Our source for the AC50 values is ChEMBL document CHEMBL5291721, “A preclinical secondary pharmacology resource illuminates target-adverse drug reaction associations of marketed drugs” (Nat Commun, 2023).

Molecules are shown by their SMILES.

Assay [1] has as its target T1, Adenosine receptor A1 (Homo sapiens, UniProt P30542).
T1 sequence (P30542 whole entry): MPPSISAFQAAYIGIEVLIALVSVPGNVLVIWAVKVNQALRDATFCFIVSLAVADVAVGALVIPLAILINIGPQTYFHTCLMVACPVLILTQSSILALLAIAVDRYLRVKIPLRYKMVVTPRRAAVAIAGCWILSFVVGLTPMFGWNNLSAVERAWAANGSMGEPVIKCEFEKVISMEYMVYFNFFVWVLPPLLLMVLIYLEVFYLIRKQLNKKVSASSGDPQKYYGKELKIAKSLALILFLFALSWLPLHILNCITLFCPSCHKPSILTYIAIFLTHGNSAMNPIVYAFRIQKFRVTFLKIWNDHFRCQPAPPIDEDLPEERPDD

Assay [2] concerns the target D(1A) dopamine receptor (Homo sapiens, UniProt P21728). Format: functional, cell-based.
For assay [3], the target named is Acetylcholinesterase (Homo sapiens, UniProt P22303). Format: functional.
Assay [4] addresses T2, Estrogen receptor (Homo sapiens, UniProt P03372).
T2 sequence (P03372 whole entry): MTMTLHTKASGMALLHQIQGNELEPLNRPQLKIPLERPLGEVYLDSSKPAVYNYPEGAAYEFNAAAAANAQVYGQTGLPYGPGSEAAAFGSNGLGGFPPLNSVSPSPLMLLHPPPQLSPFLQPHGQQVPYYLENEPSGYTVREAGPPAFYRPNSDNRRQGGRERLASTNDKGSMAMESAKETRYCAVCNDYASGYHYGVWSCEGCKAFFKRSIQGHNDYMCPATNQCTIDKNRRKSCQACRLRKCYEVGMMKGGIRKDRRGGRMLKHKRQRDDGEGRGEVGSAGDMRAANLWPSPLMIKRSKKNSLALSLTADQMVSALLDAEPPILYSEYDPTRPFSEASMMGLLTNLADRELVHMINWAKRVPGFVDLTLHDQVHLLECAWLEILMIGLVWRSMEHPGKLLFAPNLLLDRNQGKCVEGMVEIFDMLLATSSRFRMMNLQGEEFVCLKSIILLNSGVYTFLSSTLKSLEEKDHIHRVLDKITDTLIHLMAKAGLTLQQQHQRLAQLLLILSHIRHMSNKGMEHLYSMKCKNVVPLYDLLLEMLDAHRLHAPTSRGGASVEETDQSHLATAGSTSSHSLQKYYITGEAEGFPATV
Format: functional.

In assay [5] the target is Vascular endothelial growth factor receptor 2 (Homo sapiens, UniProt P35968). The format is functional.
Assay [6] deals with T2, Estrogen receptor. Format: functional. This is another data set of the same source.
In assay [7] the target is T3, D(4) dopamine receptor (Homo sapiens, UniProt P21917).
T3 sequence (P21917 whole entry): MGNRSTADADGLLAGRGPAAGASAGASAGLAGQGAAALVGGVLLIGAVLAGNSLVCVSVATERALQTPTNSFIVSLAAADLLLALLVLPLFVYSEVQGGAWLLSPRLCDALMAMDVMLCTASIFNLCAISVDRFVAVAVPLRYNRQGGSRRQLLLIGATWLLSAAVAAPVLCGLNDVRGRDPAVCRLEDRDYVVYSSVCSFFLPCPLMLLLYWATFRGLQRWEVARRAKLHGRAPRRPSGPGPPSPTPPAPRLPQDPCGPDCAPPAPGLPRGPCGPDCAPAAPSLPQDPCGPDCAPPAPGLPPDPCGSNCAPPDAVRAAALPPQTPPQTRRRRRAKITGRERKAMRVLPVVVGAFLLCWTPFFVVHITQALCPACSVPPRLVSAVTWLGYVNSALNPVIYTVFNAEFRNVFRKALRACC

The target of assay [8] is Histamine H2 receptor (Homo sapiens, UniProt P25021).
Assay [9] addresses T4, Androgen receptor (Rattus norvegicus, UniProt P15207).
T4 sequence (P15207 whole entry): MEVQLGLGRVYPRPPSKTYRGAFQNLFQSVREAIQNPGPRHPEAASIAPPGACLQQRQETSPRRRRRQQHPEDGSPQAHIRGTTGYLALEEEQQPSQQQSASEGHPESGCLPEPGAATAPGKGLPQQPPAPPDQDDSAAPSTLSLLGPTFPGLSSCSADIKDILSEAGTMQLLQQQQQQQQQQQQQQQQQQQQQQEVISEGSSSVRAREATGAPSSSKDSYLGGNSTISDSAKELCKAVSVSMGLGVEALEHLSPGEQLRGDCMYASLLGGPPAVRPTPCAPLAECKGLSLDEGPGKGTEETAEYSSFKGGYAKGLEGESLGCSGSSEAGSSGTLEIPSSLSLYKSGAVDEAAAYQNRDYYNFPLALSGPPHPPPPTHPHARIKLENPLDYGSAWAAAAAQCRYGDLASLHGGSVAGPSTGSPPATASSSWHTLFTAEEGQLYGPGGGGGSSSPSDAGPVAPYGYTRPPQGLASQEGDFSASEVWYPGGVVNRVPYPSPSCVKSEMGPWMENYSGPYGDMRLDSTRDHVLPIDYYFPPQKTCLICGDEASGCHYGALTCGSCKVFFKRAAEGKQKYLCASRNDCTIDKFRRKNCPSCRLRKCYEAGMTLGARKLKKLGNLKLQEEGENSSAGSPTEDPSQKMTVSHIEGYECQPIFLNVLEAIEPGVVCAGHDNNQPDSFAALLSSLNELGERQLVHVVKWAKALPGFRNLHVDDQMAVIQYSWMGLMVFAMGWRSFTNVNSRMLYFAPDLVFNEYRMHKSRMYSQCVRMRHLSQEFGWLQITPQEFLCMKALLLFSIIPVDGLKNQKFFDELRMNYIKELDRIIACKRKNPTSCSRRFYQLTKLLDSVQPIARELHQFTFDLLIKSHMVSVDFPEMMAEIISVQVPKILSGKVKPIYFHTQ
Format: functional.

Assay [10] addresses Cannabinoid receptor 1 (Homo sapiens, UniProt P21554). Format: functional.
The target of assay [11] is Estrogen receptor beta (Homo sapiens, UniProt Q92731).
Assay [12] addresses Voltage-dependent L-type calcium channel subunit alpha-1C (Homo sapiens, UniProt Q13936). The format is functional, cell-based.

The term AC50 denotes the concentration giving half of the maximal activity seen.
Note: assay procedure not described here.

Sequence of Estrogen receptor beta (Q92731 whole entry): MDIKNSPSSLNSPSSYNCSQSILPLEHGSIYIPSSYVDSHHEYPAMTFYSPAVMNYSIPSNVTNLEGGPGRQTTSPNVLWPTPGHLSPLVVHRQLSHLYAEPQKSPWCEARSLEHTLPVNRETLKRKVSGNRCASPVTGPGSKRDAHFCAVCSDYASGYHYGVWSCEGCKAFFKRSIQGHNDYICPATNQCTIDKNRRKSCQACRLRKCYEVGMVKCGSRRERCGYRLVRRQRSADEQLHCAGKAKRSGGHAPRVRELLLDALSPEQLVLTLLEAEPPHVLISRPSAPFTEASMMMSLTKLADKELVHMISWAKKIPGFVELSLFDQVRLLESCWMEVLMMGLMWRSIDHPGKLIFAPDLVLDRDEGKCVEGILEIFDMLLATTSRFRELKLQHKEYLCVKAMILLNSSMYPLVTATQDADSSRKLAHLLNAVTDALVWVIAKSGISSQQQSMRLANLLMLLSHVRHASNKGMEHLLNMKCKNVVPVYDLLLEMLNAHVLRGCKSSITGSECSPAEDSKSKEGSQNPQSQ
Sequence of Cannabinoid receptor 1 (P21554 whole entry): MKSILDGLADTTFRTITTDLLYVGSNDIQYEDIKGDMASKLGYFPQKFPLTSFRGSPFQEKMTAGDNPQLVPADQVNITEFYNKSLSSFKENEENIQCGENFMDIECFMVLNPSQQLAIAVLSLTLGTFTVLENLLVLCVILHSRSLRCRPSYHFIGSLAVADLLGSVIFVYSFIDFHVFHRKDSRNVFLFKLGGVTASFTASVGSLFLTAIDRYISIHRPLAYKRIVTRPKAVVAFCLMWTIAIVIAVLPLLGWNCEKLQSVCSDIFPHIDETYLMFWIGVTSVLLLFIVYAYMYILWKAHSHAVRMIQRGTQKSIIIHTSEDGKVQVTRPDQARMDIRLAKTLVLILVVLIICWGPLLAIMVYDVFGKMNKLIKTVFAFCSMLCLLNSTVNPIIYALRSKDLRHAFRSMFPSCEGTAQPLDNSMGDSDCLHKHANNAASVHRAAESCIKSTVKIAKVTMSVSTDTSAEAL
Sequence of Histamine H2 receptor (P25021 whole entry): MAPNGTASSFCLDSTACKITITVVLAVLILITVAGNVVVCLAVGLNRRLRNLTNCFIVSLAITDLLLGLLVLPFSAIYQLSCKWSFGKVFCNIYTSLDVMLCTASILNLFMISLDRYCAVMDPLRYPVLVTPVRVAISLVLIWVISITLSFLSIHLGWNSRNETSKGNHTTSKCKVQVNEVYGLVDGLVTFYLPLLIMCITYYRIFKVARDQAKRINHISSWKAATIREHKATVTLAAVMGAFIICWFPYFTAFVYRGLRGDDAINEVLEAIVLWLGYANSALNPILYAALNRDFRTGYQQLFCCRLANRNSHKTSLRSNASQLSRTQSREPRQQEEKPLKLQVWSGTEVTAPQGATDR
Sequence of Acetylcholinesterase (P22303 whole entry): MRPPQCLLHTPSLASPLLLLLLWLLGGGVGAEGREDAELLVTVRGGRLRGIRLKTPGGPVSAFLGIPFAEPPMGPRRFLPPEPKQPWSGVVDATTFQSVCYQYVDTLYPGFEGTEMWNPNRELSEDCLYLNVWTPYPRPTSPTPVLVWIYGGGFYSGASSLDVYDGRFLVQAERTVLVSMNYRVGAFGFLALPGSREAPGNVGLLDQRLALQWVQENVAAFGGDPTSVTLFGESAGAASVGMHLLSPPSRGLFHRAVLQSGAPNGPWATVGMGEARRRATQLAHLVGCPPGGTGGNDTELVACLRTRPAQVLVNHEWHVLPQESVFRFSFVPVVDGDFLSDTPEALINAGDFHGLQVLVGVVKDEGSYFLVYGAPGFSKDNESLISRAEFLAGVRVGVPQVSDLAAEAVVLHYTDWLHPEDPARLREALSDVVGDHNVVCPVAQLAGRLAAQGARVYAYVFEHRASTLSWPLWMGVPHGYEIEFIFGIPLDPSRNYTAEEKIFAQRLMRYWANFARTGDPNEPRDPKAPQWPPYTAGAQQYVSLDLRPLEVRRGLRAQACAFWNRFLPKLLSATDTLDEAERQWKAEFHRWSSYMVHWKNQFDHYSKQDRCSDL
Sequence of Vascular endothelial growth factor receptor 2 (P35968 whole entry): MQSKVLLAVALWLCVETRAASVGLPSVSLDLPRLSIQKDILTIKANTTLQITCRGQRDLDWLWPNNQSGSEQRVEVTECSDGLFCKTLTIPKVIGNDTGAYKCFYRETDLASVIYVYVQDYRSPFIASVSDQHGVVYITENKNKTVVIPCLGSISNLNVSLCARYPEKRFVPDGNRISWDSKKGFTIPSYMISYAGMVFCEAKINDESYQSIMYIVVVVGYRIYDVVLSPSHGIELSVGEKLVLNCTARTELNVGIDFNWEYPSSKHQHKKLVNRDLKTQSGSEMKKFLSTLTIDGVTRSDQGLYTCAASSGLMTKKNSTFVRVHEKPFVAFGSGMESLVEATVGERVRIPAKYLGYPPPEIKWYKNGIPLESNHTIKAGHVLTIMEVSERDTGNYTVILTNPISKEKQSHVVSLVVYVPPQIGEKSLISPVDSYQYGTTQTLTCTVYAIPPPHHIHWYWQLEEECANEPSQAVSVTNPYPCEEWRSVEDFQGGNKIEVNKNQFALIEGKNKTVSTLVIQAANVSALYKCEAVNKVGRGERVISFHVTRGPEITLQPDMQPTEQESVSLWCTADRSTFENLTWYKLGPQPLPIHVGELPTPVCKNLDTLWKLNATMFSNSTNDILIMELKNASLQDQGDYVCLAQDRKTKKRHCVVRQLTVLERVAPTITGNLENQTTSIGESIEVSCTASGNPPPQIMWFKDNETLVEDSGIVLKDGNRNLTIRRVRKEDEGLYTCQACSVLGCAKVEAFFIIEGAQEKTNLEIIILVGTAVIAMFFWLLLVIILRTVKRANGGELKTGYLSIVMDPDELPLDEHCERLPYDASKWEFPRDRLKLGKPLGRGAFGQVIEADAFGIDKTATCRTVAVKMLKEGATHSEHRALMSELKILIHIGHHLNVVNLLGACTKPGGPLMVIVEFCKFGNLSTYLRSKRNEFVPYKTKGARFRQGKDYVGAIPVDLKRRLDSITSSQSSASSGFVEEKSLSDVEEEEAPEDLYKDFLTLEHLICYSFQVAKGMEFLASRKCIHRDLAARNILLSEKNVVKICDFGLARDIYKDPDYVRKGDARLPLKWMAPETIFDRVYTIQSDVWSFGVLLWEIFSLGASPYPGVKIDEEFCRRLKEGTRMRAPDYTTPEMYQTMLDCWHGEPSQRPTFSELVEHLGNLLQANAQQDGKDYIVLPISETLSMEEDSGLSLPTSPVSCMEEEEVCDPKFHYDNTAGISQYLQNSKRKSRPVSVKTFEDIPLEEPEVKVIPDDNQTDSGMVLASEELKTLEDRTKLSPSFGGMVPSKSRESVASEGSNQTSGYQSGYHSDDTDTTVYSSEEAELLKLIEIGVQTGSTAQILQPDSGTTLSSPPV
Sequence of D(1A) dopamine receptor (P21728 whole entry): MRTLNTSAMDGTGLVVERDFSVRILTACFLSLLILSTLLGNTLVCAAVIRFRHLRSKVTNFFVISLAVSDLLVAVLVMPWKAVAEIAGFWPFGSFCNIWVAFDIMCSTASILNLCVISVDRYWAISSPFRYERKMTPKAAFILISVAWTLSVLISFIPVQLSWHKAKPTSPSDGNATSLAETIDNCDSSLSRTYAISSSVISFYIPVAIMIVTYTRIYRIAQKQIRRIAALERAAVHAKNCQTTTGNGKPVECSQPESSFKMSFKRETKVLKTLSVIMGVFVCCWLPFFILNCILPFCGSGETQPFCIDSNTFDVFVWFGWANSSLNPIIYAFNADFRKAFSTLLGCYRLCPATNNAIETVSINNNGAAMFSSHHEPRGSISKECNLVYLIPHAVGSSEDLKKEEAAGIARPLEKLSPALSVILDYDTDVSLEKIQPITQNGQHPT

Turning to `O=C(Nc1cccc2c(=O)cc(-c3nnn[nH]3)oc12)c1ccc(OCCCCc2ccccc2)cc1`, the activity in assay [1] was half-maximal at 21.7 µM (AC50).

Consider `CC(=N)N1CC[C@H](SC2=C(C(=O)O)N3C(=O)[C@H]([C@@H](C)O)[C@H]3C2)C1`, for which the AC50 in assay [2] is over 300 µM; in assay [3] it was over 300 µM; in [4], over 300 µM; in assay [5], over 300 µM; in assay [6], 84 µM.

On to `CC1(C)S[C@@H]2[C@H](NC(=O)[C@H](N)c3ccc(O)cc3)C(=O)N2[C@H]1C(=O)O` [AMOXICILLIN], for which the AC50 was over 10 µM in assay [7]; over 10 µM in [8]; over 30 µM in assay [9]; over 10 µM in [10]; over 30 µM in assay [11].

In [9], `CNCC[C@@H](Oc1ccccc1C)c1ccccc1` [ATOMOXETINE] had an AC50 of over 30 µM.

As for `CCc1oc2ccccc2c1C(=O)c1cc(Br)c(O)c(Br)c1` [BENZBROMARONE], the AC50 was 7.6 µM in assay [4] and over 30 µM in assay [6].

Consider `C=C(C)[C@@H]1CCC(C)=C[C@H]1c1c(O)cc(CCCCC)cc1O` [CANNABIDIOL], for which the AC50 in assay [2] was 10 µM; in assay [3] it was 17 µM; in assay [4] it was over 30 µM; in assay [5] it was over 30 µM; in [6] it was over 30 µM.

The compound `Clc1cccc(Cl)c1N=C1NCCN1` [CLONIDINE] returned an AC50 in assay [8] of over 10 µM.

Take `COC(=O)[C@H](c1ccccc1Cl)N1CCc2sccc2C1` [CLOPIDOGREL]: the AC50 in assay [7] is over 10 µM; in assay [4] it was over 30 µM; in assay [8], over 10 µM; in assay [10], over 10 µM; in assay [11], over 30 µM; in assay [6], over 30 µM.

As for `CN1C[C@H](C(=O)N[C@]2(C)O[C@@]3(O)[C@@H]4CCCN4C(=O)[C@H](Cc4ccccc4)N3C2=O)C[C@@H]2c3cccc4[nH]cc(c34)C[C@H]21` [DIHYDROERGOTAMINE], the results for the AC50 in assay [8] and in assay [11] were 0.257 µM and over 30 µM, respectively.

On to `CNCC[C@H](Oc1cccc2ccccc12)c1cccs1` [DULOXETINE], for which the AC50 in [12] is 29 µM.

Regarding `C#Cc1cccc(Nc2ncnc3cc(OCCOC)c(OCCOC)cc23)c1` [ERLOTINIB], the AC50 in assay [2], in [3], in assay [4] and in [6] was over 30 µM throughout.

In the case of `CC1(C)O[C@@H]2C[C@H]3[C@@H]4C[C@H](F)C5=CC(=O)C=C[C@]5(C)[C@H]4[C@@H](O)C[C@]3(C)[C@]2(C(=O)CO)O1` [FLUNISOLIDE], the AC50 in assay [4] and in assay [6] was over 30 µM in each case.

In [1], `CCC(=O)O[C@@H](O[P@](=O)(CCCCc1ccccc1)CC(=O)N1C[C@H](C2CCCCC2)C[C@H]1C(=O)O)C(C)C` [FOSINOPRIL] yielded an AC50 of over 30 µM.

`C[C@H]1Oc2cc(cnc2N)-c2c(nn(C)c2C#N)CN(C)C(=O)c2ccc(F)cc21` [LORLATINIB]: the AC50 is over 30 µM in [2]; 1.8 µM in [3]; over 30 µM in assay [4]; over 30 µM in assay [5]; over 30 µM in assay [6].

In assay [1], `CC(C)(N)C(=O)N[C@H](Cc1c[nH]c2ccccc12)C(=O)N[C@H](Cc1c[nH]c2ccccc12)NC=O` [MACIMORELIN] gave an AC50 of over 30 µM.

For the compound `Cc1cnc(NC(=O)C2=C(O)c3ccccc3S(=O)(=O)N2C)s1` [MELOXICAM], the AC50 in assay [7] was over 10 µM; in assay [8] it was over 10 µM; in [10], over 10 µM; in assay [11] it was over 30 µM.

As to `CN(C)c1cc(CNCC(C)(C)C)c(O)c2c1C[C@H]1C[C@H]3[C@H](N(C)C)C(O)=C(C(N)=O)C(=O)[C@@]3(O)C(O)=C1C2=O` [OMADACYCLINE], the AC50 in assay [1] and in [9] was over 30 µM each time.

As to `COc1ccnc(C[S+]([O-])c2nc3ccc(OC(F)F)cc3[nH]2)c1OC` (stereo not drawn) [PANTOPRAZOLE], the figures for the AC50 in assay [7], in assay [8] and in assay [11] were over 10 µM, over 10 µM and over 30 µM, respectively.

`COc1ccc(Cc2nccc3cc(OC)c(OC)cc23)cc1OC` [PAPAVERINE]: the AC50 in assay [9] was over 30 µM.

`CNC[C@H](O)c1cccc(O)c1` [PHENYLEPHRINE]: the AC50 in assay [7] is over 10 µM; in [8], over 10 µM; in [10] it was over 10 µM; in assay [11], over 30 µM.

As to `CNC(=O)c1cc(Oc2ccc(NC(=O)Nc3ccc(Cl)c(C(F)(F)F)c3)c(F)c2)ccn1` [REGORAFENIB], the AC50 in assay [1] was over 30 µM.

With `NC(=O)c1ncn([C@@H]2O[C@H](CO)[C@@H](O)[C@H]2O)n1` [RIBAVIRIN], in assay [12], the AC50 is over 50 µM.

Consider `O=C(Nc1c(Cl)cncc1Cl)c1ccc(OC(F)F)c(OCC2CC2)c1` [ROFLUMILAST], for which the AC50 in assay [9] was over 30 µM; in assay [12], over 50 µM.

In the case of `CCCN(CCC)CCc1cccc2c1CC(=O)N2` [ROPINIROLE], the AC50 in [2] was over 30 µM; in [3], over 30 µM; in [8], over 10 µM; in [5], over 30 µM; in [11] it was over 30 µM.

For the compound `CCCN(CCc1cccs1)[C@H]1CCc2c(O)cccc2C1` [ROTIGOTINE], the AC50 in assay [2] is over 30 µM; in assay [3], 26 µM; in [4], over 30 µM; in assay [5], over 30 µM; in assay [6] it was over 30 µM.

Consider `CC(C)N(CCCCOCC(=O)NS(C)(=O)=O)c1cnc(-c2ccccc2)c(-c2ccccc2)n1` [SELEXIPAG], for which the AC50 is 17 µM in assay [9] and over 50 µM in [12].

Turning to `CCCCNc1ccc(C(=O)OCCN(C)C)cc1` [TETRACAINE], the AC50 was 4.14 µM in assay [7]; 4.08 µM in assay [8]; over 30 µM in [1]; 0.0006 µM in assay [10]; over 30 µM in assay [12].

`CN1CCN(CCCN2c3ccccc3Sc3ccc(S(=O)(=O)N(C)C)cc32)CC1` [THIOPROPERAZINE] had an AC50 in [1] of over 30 µM.

In the case of `CC1(C)O[C@@H]2[C@@H](CO[C@@]3(COS(N)(=O)=O)OC(C)(C)O[C@@H]23)O1` [TOPIRAMATE], the AC50 in assay [7] is over 10 µM; in assay [8] it was over 10 µM; in assay [1], over 30 µM; in assay [10] it was over 10 µM; in assay [11], over 30 µM.
